Reference: patent publication US20230085307A1, “PYRIDAZINONE COMPOUND AND HERBICIDE” (NISSAN CHEMICAL CORPORATION, priority 2019, published 2023)

Assays:
[1] = test system: late watergrass; test: Test Example 2: herbicidal activity, application during weed generation under submerged conditions (Table 17, symbol A); format: in vivo, late watergrass (Echinochloa oryzicola); conditions: application during weed generation, submerged conditions
Method in brief: (§1)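 Steps: fill Wagner pots with alluvial soil; add water to give 4 cm depth; sow the species mixed; grow under glass at 25–30° C.; at 1–2 leaves apply water-diluted emulsion formulation to the water surface at a fixed herbicide amount; score after 3 weeks.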

[2] = test system: Japanese bulrush; test: Test Example 2: herbicidal activity, application during weed generation under submerged conditions (Table 17, symbol B); format: in vivo, Japanese bulrush (Schoenoplectus juncoides); conditions: application during weed generation, submerged conditions
Method in brief: as §1

[3] = test system: barnyard grass; test: Test Example 3: herbicidal effect by foliage application, Wagner pot (Table 18, symbol H); format: in vivo, barnyard grass (Echinochloa crus-galli)
Method in brief: (§2)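 Plants were sown in alluvial soil held under 0.1–0.5 cm standing water and grown 14 days in a greenhouse at 25–30 °C. An emulsifiable formulation, water-diluted to the set dose, was then sprayed onto the foliage, and effects were scored three weeks later using previously defined criteria.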

[4] = test system: rice flat sedge; test: Test Example 3: herbicidal effect by foliage application, Wagner pot (Table 18, symbol E); format: in vivo, rice flat sedge (Cyperus iria)
Method in brief: as §2

[5] = test system: southern crabgrass; test: Test Example 4: herbicidal effect by soil treatment (Table 19, symbol F); format: in vivo, southern crabgrass (Digitaria ciliaris)
Method in brief: (§3)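 Applied as a water-diluted emulsion, the compound was sprayed onto soil covering newly sown seeds. Evaluation came three weeks after application, in a greenhouse held at 25° C. to 30° C.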

[6] = test system: green foxtail; test: Test Example 4: herbicidal effect by soil treatment (Table 19, symbol G); format: in vivo, green foxtail (Setaria viridis)
Method in brief: as §3

[7] = test system: barnyard grass; test: Test Example 4: herbicidal effect by soil treatment (Table 19, symbol H); format: in vivo, barnyard grass (Echinochloa crus-galli)
Method in brief: as §3

[8] = test system: wild oat; test: Test Example 4: herbicidal effect by soil treatment (Table 19, symbol I); format: in vivo, wild oat (Avena fatua)
Method in brief: as §3

[9] = test system: Italian ryegrass; test: Test Example 4: herbicidal effect by soil treatment (Table 19, symbol K); format: in vivo, Italian ryegrass (Lolium multiflorum)
Method in brief: as §3

[10] = test system: velvetleaf; test: Test Example 4: herbicidal effect by soil treatment (Table 19, symbol M); format: in vivo, velvetleaf (Abutilon theophrasti)
Method in brief: as §3

[11] = test system: redroot pigweed; test: Test Example 4: herbicidal effect by soil treatment (Table 19, symbol N); format: in vivo, redroot pigweed (Amaranthus retroflexus)
Method in brief: as §3

[12] = test system: lambsquarters; test: Test Example 4: herbicidal effect by soil treatment (Table 19, symbol O); format: in vivo, lambsquarters (Chenopodium album)
Method in brief: as §3

[13] = test system: chickweed; test: Test Example 4: herbicidal effect by soil treatment (Table 19, symbol P); format: in vivo, common chickweed (Stellaria media)
Method in brief: as §3

[14] = test system: southern crabgrass; test: Test Example 5: herbicidal effect by foliage application, plastic box (Table 20, symbol F); format: in vivo, southern crabgrass (Digitaria ciliaris); conditions: foliage application, 3 weeks after application
Method in brief: (§4)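 Sow seeds spot-wise in sterilized diluvial soil; cover with ~1.5 cm soil. Grow 14 days in greenhouse, 25° C. to 30° C. Spray foliage with emulsion diluted to predetermined amount. Rate effect after 3 weeks.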

[15] = test system: barnyard grass; test: Test Example 5: herbicidal effect by foliage application, plastic box (Table 20, symbol H); format: in vivo, barnyard grass (Echinochloa crus-galli); conditions: foliage application, 3 weeks after application
Method in brief: as §4

[16] = test system: wild oat; test: Test Example 5: herbicidal effect by foliage application, plastic box (Table 20, symbol I); format: in vivo, wild oat (Avena fatua); conditions: foliage application, 3 weeks after application
Method in brief: as §4

[17] = test system: blackgrass; test: Test Example 5: herbicidal effect by foliage application, plastic box (Table 20, symbol J); format: in vivo, blackgrass (Alopecurus myosuroides); conditions: foliage application, 3 weeks after application
Method in brief: as §4

[18] = test system: Italian ryegrass; test: Test Example 5: herbicidal effect by foliage application, plastic box (Table 20, symbol K); format: in vivo, Italian ryegrass (Lolium multiflorum); conditions: foliage application, 3 weeks after application
Method in brief: as §4

[19] = test system: windgrass; test: Test Example 5: herbicidal effect by foliage application, plastic box (Table 20, symbol L); format: in vivo, windgrass (Apera spica-venti); conditions: foliage application, 3 weeks after application
Method in brief: as §4

[20] = test system: lambsquarters; test: Test Example 5: herbicidal effect by foliage application, plastic box (Table 20, symbol O); format: in vivo, lambsquarters (Chenopodium album); conditions: foliage application, 3 weeks after application
Method in brief: as §4

[21] = test system: persian speedwell; test: Test Example 5: herbicidal effect by foliage application, plastic box (Table 20, symbol R); format: in vivo, Persian speedwell (Veronica persica); conditions: foliage application, 3 weeks after application
Method in brief: as §4

## Cc1nn(C)c(=O)c(-c2c(-c3ccc(OCCC4OCCO4)cc3)sc3ccccc23)c1O [1-223]
[1]; AAH 246 g/ha
  herbicidal effect rating, A: late watergrass: 3 (Herbicidal rate of 40% or more and less than 70%)
[2]; AAH 246 g/ha
  herbicidal effect rating, B: Japanese bulrush: 3 (Herbicidal rate of 40% or more and less than 70%)
[3]; 246 g/ha
  herbicidal effect on H (barnyard grass), rating 0-5: 5 (Herbicidal rate of 90% or more (almost completely withered))
[4]; 246 g/ha
  herbicidal effect on E (rice flat sedge), rating 0-5: 4 (Herbicidal rate of 70% or more and less than 90%)
[5]; AAH 246 g/ha
  F: southern crabgrass, herbicidal effect rating: 0 (Herbicidal rate of 5% or less (almost no effect))
[6]; AAH 246 g/ha
  G: green foxtail, herbicidal effect rating: 2 (Herbicidal rate of 20% or more and less than 40%)
[7]; AAH 246 g/ha
  H: barnyard grass, herbicidal effect rating: 3 (Herbicidal rate of 40% or more and less than 70%)
[8]; AAH 246 g/ha
  I: wild oat, herbicidal effect rating: 0 (Herbicidal rate of 5% or less (almost no effect))
[9]; AAH 246 g/ha
  K: Italian ryegrass, herbicidal effect rating: 0 (Herbicidal rate of 5% or less (almost no effect))
[10]; AAH 246 g/ha
  M: velvetleaf, herbicidal effect rating: 0 (Herbicidal rate of 5% or less (almost no effect))
[11]; AAH 246 g/ha
  N: redroot pigweed, herbicidal effect rating: 4 (Herbicidal rate of 70% or more and less than 90%)
[12]; AAH 246 g/ha
  O: lambsquarters, herbicidal effect rating: 3 (Herbicidal rate of 40% or more and less than 70%)
[13]; AAH 246 g/ha
  P: chickweed, herbicidal effect rating: 0 (Herbicidal rate of 5% or less (almost no effect))
[14]; 246 g/ha
  effect on southern crabgrass (F): 4 (Herbicidal rate of 70% or more and less than 90%)
[15]; 246 g/ha
  effect on barnyard grass (H): 5 (Herbicidal rate of 90% or more (almost completely withered))
[16]; 246 g/ha
  effect on wild oat (I): 3 (Herbicidal rate of 40% or more and less than 70%)
[17]; 246 g/ha
  effect on blackgrass (J): 2 (Herbicidal rate of 20% or more and less than 40%)
[18]; 246 g/ha
  effect on Italian ryegrass (K): 3 (Herbicidal rate of 40% or more and less than 70%)
[19]; 246 g/ha
  effect on windgrass (L): 4 (Herbicidal rate of 70% or more and less than 90%)
[20]; 246 g/ha
  effect on lambsquarters (O): 5 (Herbicidal rate of 90% or more (almost completely withered))
[21]; 246 g/ha
  effect on persian speedwell (R): 5 (Herbicidal rate of 90% or more (almost completely withered))

## CSCCSCc1ccc(-c2sc3ccccc3c2-c2c(O)c(C)nn(C)c2=O)cc1 [1-253]
[1]; AAH 320 g/ha
  herbicidal effect rating, A: late watergrass: 3 (Herbicidal rate of 40% or more and less than 70%)
[2]; AAH 320 g/ha
  herbicidal effect rating, B: Japanese bulrush: 0 (Herbicidal rate of 5% or less (almost no effect))
[3]; 320 g/ha
  herbicidal effect on H (barnyard grass), rating 0-5: 5 (Herbicidal rate of 90% or more (almost completely withered))
[4]; 320 g/ha
  herbicidal effect on E (rice flat sedge), rating 0-5: 3 (Herbicidal rate of 40% or more and less than 70%)
[5]; AAH 320 g/ha
  F: southern crabgrass, herbicidal effect rating: 0 (Herbicidal rate of 5% or less (almost no effect))
[6]; AAH 320 g/ha
  G: green foxtail, herbicidal effect rating: 0 (Herbicidal rate of 5% or less (almost no effect))
[7]; AAH 320 g/ha
  H: barnyard grass, herbicidal effect rating: 0 (Herbicidal rate of 5% or less (almost no effect))
[8]; AAH 320 g/ha
  I: wild oat, herbicidal effect rating: 0 (Herbicidal rate of 5% or less (almost no effect))
[9]; AAH 320 g/ha
  K: Italian ryegrass, herbicidal effect rating: 0 (Herbicidal rate of 5% or less (almost no effect))
[10]; AAH 320 g/ha
  M: velvetleaf, herbicidal effect rating: 0 (Herbicidal rate of 5% or less (almost no effect))
[11]; AAH 320 g/ha
  N: redroot pigweed, herbicidal effect rating: 3 (Herbicidal rate of 40% or more and less than 70%)
[12]; AAH 320 g/ha
  O: lambsquarters, herbicidal effect rating: 3 (Herbicidal rate of 40% or more and less than 70%)
[13]; AAH 320 g/ha
  P: chickweed, herbicidal effect rating: 3 (Herbicidal rate of 40% or more and less than 70%)
[14]; 320 g/ha
  effect on southern crabgrass (F): 1 (Herbicidal rate of 5% or more and less than 20%)
[15]; 320 g/ha
  effect on barnyard grass (H): 5 (Herbicidal rate of 90% or more (almost completely withered))
[16]; 320 g/ha
  effect on wild oat (I): 0 (Herbicidal rate of 5% or less (almost no effect))
[17]; 320 g/ha
  effect on blackgrass (J): 0 (Herbicidal rate of 5% or less (almost no effect))
[18]; 320 g/ha
  effect on Italian ryegrass (K): 4 (Herbicidal rate of 70% or more and less than 90%)
[19]; 320 g/ha
  effect on windgrass (L): 0 (Herbicidal rate of 5% or less (almost no effect))
[20]; 320 g/ha
  effect on lambsquarters (O): 5 (Herbicidal rate of 90% or more (almost completely withered))
[21]; 320 g/ha
  effect on persian speedwell (R): 5 (Herbicidal rate of 90% or more (almost completely withered))

## Cc1ccc(-c2sc3ccc(F)cc3c2-c2c(O)c(C)nn(C)c2=O)cc1 [2-012]
[1]; AAH 320 g/ha
  herbicidal effect rating, A: late watergrass: 3 (Herbicidal rate of 40% or more and less than 70%)
[2]; AAH 320 g/ha
  herbicidal effect rating, B: Japanese bulrush: 3 (Herbicidal rate of 40% or more and less than 70%)
[3]; 320 g/ha
  herbicidal effect on H (barnyard grass), rating 0-5: 5 (Herbicidal rate of 90% or more (almost completely withered))
[4]; 320 g/ha
  herbicidal effect on E (rice flat sedge), rating 0-5: 5 (Herbicidal rate of 90% or more (almost completely withered))
[5]; 320 g/ha
  herbicidal effect rating, F: southern crabgrass: 5 (Herbicidal rate of 90% or more (almost completely withered))
[6]; 320 g/ha
  herbicidal effect rating, G: green foxtail: 5 (Herbicidal rate of 90% or more (almost completely withered))
[7]; 320 g/ha
  herbicidal effect rating, H: barnyard grass: 5 (Herbicidal rate of 90% or more (almost completely withered))
[8]; 320 g/ha
  herbicidal effect rating, I: wild oat: 0 (Herbicidal rate of 5% or less (almost no effect))
[9]; 320 g/ha
  herbicidal effect rating, K: Italian ryegrass: 4 (Herbicidal rate of 70% or more and less than 90%)
[10]; 320 g/ha
  herbicidal effect rating, M: velvetleaf: 4 (Herbicidal rate of 70% or more and less than 90%)
[11]; 320 g/ha
  herbicidal effect rating, N: redroot pigweed: 5 (Herbicidal rate of 90% or more (almost completely withered))
[12]; 320 g/ha
  herbicidal effect rating, O: lambsquarters: 5 (Herbicidal rate of 90% or more (almost completely withered))
[13]; 320 g/ha
  herbicidal effect rating, P: chickweed: 4 (Herbicidal rate of 70% or more and less than 90%)
[14]; 320 g/ha
  effect on southern crabgrass (F): 5 (Herbicidal rate of 90% or more (almost completely withered))
[15]; 320 g/ha
  effect on barnyard grass (H): 4 (Herbicidal rate of 70% or more and less than 90%)
[16]; 320 g/ha
  effect on wild oat (I): 0 (Herbicidal rate of 5% or less (almost no effect))
[17]; 320 g/ha
  effect on blackgrass (J): 4 (Herbicidal rate of 70% or more and less than 90%)
[18]; 320 g/ha
  effect on Italian ryegrass (K): 4 (Herbicidal rate of 70% or more and less than 90%)
[19]; 320 g/ha
  effect on windgrass (L): 4 (Herbicidal rate of 70% or more and less than 90%)
[20]; 320 g/ha
  effect on lambsquarters (O): 4 (Herbicidal rate of 70% or more and less than 90%)
[21]; 320 g/ha
  effect on persian speedwell (R): 5 (Herbicidal rate of 90% or more (almost completely withered))
